Source: the Kinase Knowledgebase extract (Sharma et al. 2016)

biological target: PIK3CG (human) (UniProt P48736); experiment: Inhibition of PIK3CG Kinase Activity
Sequence (P48736 whole entry, looked up): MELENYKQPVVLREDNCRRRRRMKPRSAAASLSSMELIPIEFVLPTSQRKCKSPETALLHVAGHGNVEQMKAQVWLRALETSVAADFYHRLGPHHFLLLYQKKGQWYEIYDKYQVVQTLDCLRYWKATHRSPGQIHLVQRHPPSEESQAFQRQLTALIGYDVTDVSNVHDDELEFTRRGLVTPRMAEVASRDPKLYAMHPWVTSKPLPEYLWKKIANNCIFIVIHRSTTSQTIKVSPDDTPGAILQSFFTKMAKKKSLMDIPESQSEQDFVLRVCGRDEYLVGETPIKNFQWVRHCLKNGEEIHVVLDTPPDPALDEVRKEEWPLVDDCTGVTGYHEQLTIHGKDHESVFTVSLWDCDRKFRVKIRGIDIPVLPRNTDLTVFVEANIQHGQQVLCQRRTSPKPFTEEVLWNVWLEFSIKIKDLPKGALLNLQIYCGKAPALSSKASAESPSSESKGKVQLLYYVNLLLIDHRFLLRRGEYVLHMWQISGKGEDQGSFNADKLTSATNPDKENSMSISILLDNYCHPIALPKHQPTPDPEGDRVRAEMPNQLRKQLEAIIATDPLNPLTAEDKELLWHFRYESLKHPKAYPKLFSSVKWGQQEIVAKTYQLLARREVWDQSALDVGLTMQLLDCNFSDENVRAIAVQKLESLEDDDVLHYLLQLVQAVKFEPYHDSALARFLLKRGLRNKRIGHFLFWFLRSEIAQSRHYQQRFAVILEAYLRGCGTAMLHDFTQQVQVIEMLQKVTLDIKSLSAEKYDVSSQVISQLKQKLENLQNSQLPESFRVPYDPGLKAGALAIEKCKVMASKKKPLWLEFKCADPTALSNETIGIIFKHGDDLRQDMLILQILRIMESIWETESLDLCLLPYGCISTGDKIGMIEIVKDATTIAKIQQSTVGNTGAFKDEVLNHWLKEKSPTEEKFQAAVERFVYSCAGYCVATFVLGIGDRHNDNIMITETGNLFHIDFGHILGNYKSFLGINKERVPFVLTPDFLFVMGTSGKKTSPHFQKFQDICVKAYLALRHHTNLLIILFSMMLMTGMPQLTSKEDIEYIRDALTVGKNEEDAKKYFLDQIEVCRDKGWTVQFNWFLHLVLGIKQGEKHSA

SMILES	Ki [nM]
COc1cc(-c2ccc3c(n2)CN(c2ccc(N4CCC[C@@H]4CO)nc2)C3=O)cnc1OC	< 100
COc1cc(-c2ccc3c(c2)CN(c2ccn(CC(N)=O)n2)C3=O)cnc1OC	100 to 490
COc1ncc(-c2cc(C)c3c(n2)C(C)(C)N(c2cnn(CC(F)(F)F)c2)C3=O)cc1C(=O)O	< 100
CCn1ccc(N2Cc3nc(-c4cnc(OC)c(OCC5CC5)c4)cc(C)c3C2=O)n1	< 100
COc1cncc(-c2cc(C)c3c(n2)C(C)(OC)N(c2cnn(CC(F)(F)F)c2)C3=O)c1 (centres undefined)	< 100
Cc1cc(-c2cncc(OC(F)F)c2)nc2c1C(=O)N(c1cncc(C(C)(C)C#N)c1)C2	< 100
COc1cc(-c2ccc3c(n2)C2(CC2)N(c2cnn(CC(F)(F)F)c2)C3=O)cnc1OC	< 100
COc1ncc(-c2cc(C)c3c(n2)C(C)(C)N(c2cnn(CC(F)(F)F)c2)C3=O)cc1C(=O)NCC(C)O (centres undefined)	< 100
COCCO[C@@H]1c2nc(-c3cnc(OC)c(OC)c3)ccc2C(=O)N1c1cnn(CC(F)(F)F)c1	< 100
COc1cc(-c2ccc3c(n2)C(C)(C)N(c2cn[nH]c2)C3=O)cnc1OC	< 100
CCNC(=O)c1cncc(-c2cc(C)c3c(n2)CN(c2ccn([C@H]4CCOC4)n2)C3=O)c1	100 to 490
CCOc1cncc(-c2cc(C)c3c(n2)C(C)(C)N(c2cnn(CC(F)F)c2)C3=O)c1	< 100
Cc1cc(-c2cncc(C(=O)O)c2)nc2c1C(=O)N(c1ccn([C@H]3CCOC3)n1)C2	< 100
COc1cc(-c2ccc3c(c2)CN(c2cncc(C)c2)C3=O)cnc1OC	< 100
COc1cc(-c2cc(C)c3c(n2)C(C)(C)N(c2cnn(CC(F)(F)F)c2)C3=O)cnc1C	< 100
COc1cc(-c2ccc3c(n2)CN(c2cnn(C(C)(C)C#N)c2)C3=O)cnc1OC	< 100
COc1cc(-c2cc(C)c3c(n2)CN(c2ccn(C)n2)C3=O)cnc1OC	< 100
Cc1cc(-c2cncc(C(=O)NCC(F)(F)F)c2)nc2c1C(=O)N(c1cnn(CC(F)(F)F)c1)C2(C)C	< 100
COc1cc(-c2ccc3c(n2)CN(c2cnn(C4CCOCC4)c2)C3=O)cnc1OC	< 100
COc1ncc(-c2cc(C)c3c(n2)CN(c2cn[nH]c2)C3=O)cc1OCC(F)F	< 100
COc1cc(-c2cc(C)c3c(n2)C2(CCCO2)N(c2cnn(CC(F)(F)F)c2)C3=O)cnc1OC(C)C (centres undefined)	< 100
COc1cc(-c2ccc3c(n2)CN(c2ccc(N4CCOC(CO)C4)nc2)C3=O)cnc1OC (centres undefined)	100 to 490
COc1ncc(-c2cc(C)c3c(c2)C(C)N(c2cnn(CC(F)(F)F)c2)C3=O)cc1F (centres undefined)	< 100
COc1cncc(-c2cc(C)c3c(n2)[C@@]2(CCOC2)N(c2cnn(CC(F)(F)F)c2)C3=O)c1	< 100

SMILES	Ki [nM]
COCCOc1cc(-c2cc(C)c3c(n2)CN(c2cnn(CC(F)(F)F)c2)C3=O)cnc1OC	< 100
CCOc1ncc(-c2ccc3c(n2)CN(c2cnn(CC#N)c2)C3=O)cc1OC	< 100
CC[C@]1(OC)c2nc(-c3cnc(OC)c(OC)c3)cc(C)c2C(=O)N1c1cnn(CC(F)(F)F)c1	< 100
COc1cc(-c2ccc3c(n2)CN(c2ccc(N4CCCC(CO)C4)nc2)C3=O)cnc1OC (centres undefined)	< 100
COc1cc(-c2cc(C)c3c(n2)[C@@H](OC)N(c2cnn(CC(F)(F)F)c2)C3=O)cnc1OC	< 100
COc1cc(-c2cc(C)c3c(n2)CN(c2cc(C)n(Cc4ccccn4)n2)C3=O)cnc1OC	< 100
Cc1cc(-c2cncc(C(=O)NC3CCOC3)c2)nc2c1C(=O)N(c1cnn(CC(F)(F)F)c1)C2(C)C (centres undefined)	< 100
CCOc1cc(-c2cc(C)c3c(c2)C(C)N(c2cnn(CC(F)(F)F)c2)C3=O)cnc1OCC (centres undefined)	< 100
COc1cncc(-c2cc(C)c3c(n2)C2(CN(C(=O)OC(C)(C)C)C2)N(c2cnn(CC(F)(F)F)c2)C3=O)c1	< 100
COc1cc(-c2ccc3c(c2)CN(c2cnn(C)c2)C3=O)cnc1OC	100 to 490
COc1cc(-c2ccc3c(n2)CN(c2cnn([C@H](C)CO)c2)C3=O)cnc1OC	< 100
COc1cc(-c2cc(C)c3c(n2)CN(c2ccnc(F)c2)C3=O)cnc1OC	< 100
COc1cc(-c2cc(C)c3c(n2)C(C)N(c2cnn(C[C@@H](C)O)c2)C3=O)cnc1OC (some centres undefined)	< 100
Cc1cc(-c2cncc(OC(F)F)c2)nc2c1C(=O)N(c1cnn(C[C@@H](C)O)c1)C2	< 100
COc1cncc(-c2cc(C)c3c(n2)[C@H](C)N(c2ccn(CC(C)(C)O)n2)C3=O)c1	< 100
COCc1cc(N2Cc3nc(-c4cnc(OC)c(OC)c4)ccc3C2=O)nn1C	< 100
CO[C@H]1c2nc(-c3cncc(OCC(F)F)c3)cc(C)c2C(=O)N1c1cnn(CC(F)(F)F)c1	< 100
COc1ncc(-c2cc(C)c3c(n2)CN(c2cnn(CC(F)(F)F)c2)C3=O)cc1F	< 100
COc1cc(-c2cc(Cl)c3c(c2)CN(c2cnn(CC#N)c2)C3=O)cnc1OC	< 100
COc1cc(-c2cc(C)c3c(n2)C(O)(C2CC2)N(c2cnn(CC(F)(F)F)c2)C3=O)cnc1OC (centres undefined)	< 100
COc1cc(-c2ccc3c(n2)CN(c2ccc(N(C)CC4OCCO4)nc2)C3=O)cnc1OC	100 to 490
Cc1cc(-c2cnc(C)c(C(=O)O)c2)nc2c1C(=O)N(c1cnn(CC(F)(F)F)c1)C2(C)C	< 100
COc1cc(-c2cc(C)c3c(n2)[C@@](C)(OC)N(c2cnn(CC(F)(F)F)c2)C3=O)cnc1OC	< 100
COc1cc(-c2ccc3c(n2)CN(c2ccc(N4CCC(CCO)C4)nc2)C3=O)cnc1OC (centres undefined)	100 to 490

SMILES	Ki [nM]
COCc1cc(N2Cc3nc(-c4cnc(OC)c(OC)c4)ccc3C2=O)nn1C[C@H](C)O	< 100
COc1cc(-c2ccc3c(n2)C(C)N(c2cccc(C(C)(C)C#N)n2)C3=O)cnc1OC (centres undefined)	< 100
COc1cc(-c2cc(C)c3c(c2)CN(c2cnn([C@H](CO)C(F)(F)F)c2)C3=O)cnc1OC	< 100
COc1cncc(-c2cc(C)c3c(n2)C(C)N(c2ccn(C)n2)C3=O)c1 (centres undefined)	< 100
COc1cncc(-c2cc(C)c3c(n2)C2(CCCO2)N(c2cnn(CC(F)(F)F)c2)C3=O)c1 (centres undefined)	< 100
COc1cc(-c2cc(C)c3c(n2)CN(c2ccc(C(F)(F)F)nc2)C3=O)cnc1OC	< 100
COc1cc(-c2cc(C)c3c(n2)CN(c2cnn(C)c2)C3=O)cnc1OC	< 100
CCOc1ncc(-c2cc(C)c3c(c2)CN(c2cnn(CC(F)(F)F)c2)C3=O)cc1OC	< 100
COc1cc(-c2ccc3c(c2)CN(c2cccc(C(C)=O)c2)C3=O)cnc1OC	100 to 490
Cc1cc(-c2cncc(C(=O)N(C)C)c2)nc2c1C(=O)N(c1cnn(CC(F)(F)F)c1)C2(C)C	100 to 490
COc1cc(-c2ccc3c(n2)C(C)N(c2cnn(CC(C)(C)O)c2)C3=O)cnc1OC (centres undefined)	100 to 490
COc1cc(-c2cc(C)c3c(n2)C(CC2CCOC2)N(c2cnn(CC(F)(F)F)c2)C3=O)cnc1OC (centres undefined)	< 100
COc1cc(-c2cc(C)c3c(n2)[C@@H](C)N(c2cnn(C[C@@H](C)O)c2)C3=O)cnc1OC	< 100
COc1cc(-c2ccc3c(n2)C(C)(C)N(c2cnn(CC#N)c2)C3=O)cnc1OC	< 100
Cc1cc(-c2cncc(OCCF)c2)nc2c1C(=O)N(c1cnn(CC(F)(F)F)c1)C2	< 100
COc1cncc(-c2cc(C)c3c(n2)CN(c2ccn(C4COC4)n2)C3=O)c1	< 100
COc1cc(-c2ccc3c(n2)[C@@H](C)N(c2cccc(C(C)(C)C#N)n2)C3=O)cnc1OC	< 100
Cc1cc(-c2cncc(OC(F)F)c2)nc2c1C(=O)N(c1cnn(C[C@H](C)O)c1)C2C (some centres undefined)	< 100
Cc1cc(-c2cncc(OC(F)F)c2)cc2c1C(=O)N(c1cnn(CC(F)(F)F)c1)C2	< 100
CCOc1ncc(-c2cc(C)c3c(c2)C(C)N(c2cnn(CC(F)(F)F)c2)C3=O)cc1OC (centres undefined)	< 100
COCCOCCOc1ncc(-c2cc(C)c3c(n2)CN(c2cnn(CC(F)(F)F)c2)C3=O)cc1OC	< 100
CCO[C@H]1c2nc(-c3cnc(OC)c(OC)c3)cc(C)c2C(=O)N1c1cnn(CC(F)(F)F)c1	< 100
COc1cc(-c2cc(Cl)c3c(n2)CN(c2cnn(CC#N)c2)C3=O)cnc1OC	< 100
Cc1cc(-c2cncc(OCC(F)F)c2)nc2c1C(=O)N(c1cnn(CC(F)F)c1)C2(C)C	< 100

SMILES	Ki [nM]
COc1cc(-c2ccc3c(n2)CN(c2cnn(CCC(=O)O)c2)C3=O)cnc1OC	< 100
COc1ncc(-c2ccc3c(n2)CN(c2ccn(C)n2)C3=O)cc1OC(F)F	< 100
CCn1nc(N2Cc3nc(-c4cnc(OC)c(OC)c4)ccc3C2=O)cc1COC	< 100
COc1ncc(-c2cc(C)c3c(n2)C(C)N(c2cnn(CC(F)F)c2)C3=O)cc1C(=O)NCC(F)F (centres undefined)	< 100
COc1ncc(-c2cc(C)c3c(n2)CN(c2ccn(C4COC4)n2)C3=O)cc1OCC1CC1	< 100
COc1cc(-c2ccc3c(n2)[C@@H](C)N(c2cn(CC(F)(F)F)cn2)C3=O)cnc1OC	< 100
COc1cc(-c2ccc3c(c2)CN(c2cnn([C@H](C)C#N)c2)C3=O)cnc1OC	< 100
COc1cc(-c2ccc3c(n2)CN(c2ccc(OCC(F)(F)F)nc2)C3=O)cnc1OC	100 to 490
CCOc1cncc(-c2cc(C)c3c(n2)C(C)(C)N(c2cnn(CC#N)c2)C3=O)c1	< 100
COc1ncc(-c2cc(C)c3c(c2)C(C)N(c2cnn(CC(F)(F)F)c2)C3=O)nc1OC (centres undefined)	< 100
Cc1cc(-c2cncc(OC(F)F)c2)nc2c1C(=O)N(c1cn[nH]c1)C2(C)C	< 100
COc1cc(-c2cc(C)c3c(n2)CN(c2cnn(CC(F)F)c2)C3=O)cnc1OC	< 100
COc1cc(-c2cc(C)c3c(n2)CN(c2cnn(C[C@H](C)O)c2)C3=O)cnc1OC	< 100
COc1cc(-c2ccc3c(n2)CN(c2cnn(C4CC4)c2)C3=O)cnc1OC	< 100
CCOc1cc(-c2cc(C)c3c(n2)CN(c2cnn(CC#N)c2)C3=O)cnc1OCC	< 100
Cc1cc(-c2cncc(NC(=O)C(C)(C)C)c2)nc2c1C(=O)N(c1cnn(CC(F)(F)F)c1)C2(C)C	100 to 490
COc1ncc(-c2cc(C)c3c(n2)CN(c2cnn(C(C)(C)C#N)c2)C3=O)c(OC)n1	< 100
COc1cc(-c2ccc3c(n2)CN(c2cncs2)C3=O)cnc1OC	< 100
CCC(O)c1ncc(N2Cc3nc(-c4cnc(OC)c(OC)c4)cc(C)c3C2=O)cn1 (centres undefined)	< 100
COc1ncc(-c2cc(C)c3c(n2)C(C)(C)N(c2cnn(CC(F)(F)F)c2)C3=O)cc1C(=O)NC1CC1	< 100
COc1cc(-c2ccc3c(n2)CN(c2cnn(CC4CNC(=O)O4)c2)C3=O)cnc1OC (centres undefined)	< 100
COc1ncc(-c2ccc3c(n2)CN(c2cnn(CC(F)(F)F)c2)C3=O)cc1CO	100 to 490
